“And” between values parts separate entries of the source, which are not always exact repeats. Equal values may be shown once. HELM strings list units from the 5' end as sugar, base in round brackets, then linkage (d deoxyribose, r ribose, m 2'-O-methyl, p phosphodiester). Methylation of C is not given here. [moe] = 2'-O-(2-methoxyethyl) (MOE); [cEt] = constrained ethyl (cEt); [sp] = phosphorothioate linkage
Target: HBV
Conditions: ASO

Substance	target mRNA inhibition (HepG2, 0.07 µM)	other results
RNA1{[moe](G)[sp].[moe](A)[sp].[moe](A)[sp].d(G)[sp].d(C)[sp].d(G)[sp].d(A)[sp].d(A)[sp].d(G)[sp].d(T)[sp].d(G)[sp].d(C)[sp].[moe](A)[sp].[moe](C)[sp].[moe](A)[sp].[moe](C)}$$$$V2.0	52% and 50%	
RNA1{[moe](G)[sp].[cEt](T)[sp].[cEt](C)[sp].d(C)[sp].d(A)[sp].d(C)[sp].d(C)[sp].d(A)[sp].d(C)[sp].d(G)[sp].d(A)[sp].d(G)[sp].d(T)[sp].[cEt](C)[sp].[cEt](T)[sp].[moe](A)}$$$$V2.0	55% and 56%	
RNA1{[moe](T)[sp].[moe](G)[sp].[moe](A)[sp].d(A)[sp].d(G)[sp].d(C)[sp].d(G)[sp].d(A)[sp].d(A)[sp].d(G)[sp].d(T)[sp].d(G)[sp].d(C)[sp].[cEt](A)[sp].[cEt](C)[sp].[cEt](A)}$$$$V2.0	67% and 70%	
RNA1{[moe](G)[sp].[moe](T)[sp].d(T)[sp].d(C)[sp].d(C)[sp].d(G)[sp].d(C)[sp].d(A)[sp].d(G)[sp].d(T)[sp].d(A)[sp].[moe](T)[sp].[moe](G)[sp].[moe](G)[sp].[moe](A)[sp].[moe](T)[sp].[moe](C)}$$$$V2.0	45% and 58%	
RNA1{[moe](C)[sp].[moe](C)[sp].[moe](A)[sp].d(C)[sp].d(T)[sp].d(G)[sp].d(A)[sp].d(A)[sp].d(C)[sp].d(A)[sp].d(A)[sp].d(A)[sp].[moe](T)[sp].[moe](G)[sp].[moe](G)[sp].[moe](C)}$$$$V2.0	69%	
RNA1{[moe](C)[sp].[moe](C)[sp].[moe](A)[sp].[moe](A)[sp].[moe](T)[sp].[moe](T)[sp].d(T)[sp].d(A)[sp].d(T)[sp].d(G)[sp].d(C)[sp].d(C)[sp].d(T)[sp].d(A)[sp].d(C)[sp].[moe](A)[sp].[moe](G)}$$$$V2.0	13% and 20%	
RNA1{[moe](G)[sp].[cEt](C)[sp].d(A)[sp].d(G)[sp].d(T)[sp].d(A)[sp].d(T)[sp].d(G)[sp].d(G)[sp].d(A)[sp].d(T)[sp].d(C)[sp].[cEt](G)[sp].[moe](G)[sp].[cEt](C)[sp].[moe](A)}$$$$V2.0	83% and 90%	target mRNA inhibition (HepG2, 0.0092593 µM): 25%; target mRNA inhibition (HepG2, 0.0277778 µM): 44%; target mRNA inhibition (HepG2, 0.0833333 µM): 77%; target mRNA inhibition (HepG2, 0.25 µM): 89%
RNA1{[moe](C)[sp].[moe](G)[sp].[moe](C)[sp].[moe](A)[sp].d(G)[sp].d(T)[sp].d(A)[sp].d(T)[sp].d(G)[sp].d(G)[sp].d(A)[sp].d(T)[sp].d(C)[sp].[moe](G)[sp].[moe](G)[sp].[moe](C)[sp].[moe](A)}$$$$V2.0	81% and 67%	
RNA1{[moe](T)[sp].[moe](G)[sp].d(A)[sp].d(A)[sp].d(G)[sp].d(C)[sp].d(G)[sp].d(A)[sp].d(A)[sp].d(G)[sp].d(T)[sp].[moe](G)[sp].[moe](C)[sp].[moe](A)[sp].[moe](C)[sp].[moe](A)[sp].[moe](C)}$$$$V2.0	81% and 79%	
RNA1{[moe](G)[sp].[moe](A)[sp].[moe](G)[sp].d(A)[sp].d(A)[sp].d(G)[sp].d(T)[sp].d(C)[sp].d(C)[sp].d(A)[sp].d(C)[sp].d(C)[sp].d(A)[sp].[cEt](C)[sp].[cEt](G)[sp].[cEt](A)}$$$$V2.0	60% and 71%	
RNA1{[moe](A)[sp].[moe](C)[sp].[moe](T)[sp].d(A)[sp].d(G)[sp].d(T)[sp].d(A)[sp].d(A)[sp].d(A)[sp].d(C)[sp].d(T)[sp].d(G)[sp].[moe](A)[sp].[moe](G)[sp].[moe](C)[sp].[moe](C)[sp].[moe](A)}$$$$V2.0	66% and 67%	
RNA1{[moe](G)[sp].[moe](A)[sp].[moe](G)[sp].[moe](T)[sp].[moe](T)[sp].d(C)[sp].d(C)[sp].d(G)[sp].d(C)[sp].d(A)[sp].d(G)[sp].d(T)[sp].d(A)[sp].d(T)[sp].[moe](G)[sp].[moe](G)[sp].[moe](A)}$$$$V2.0	75% and 56%	
RNA1{[moe](A)[sp].[moe](A)[sp].[moe](C)[sp].[moe](T)[sp].d(G)[sp].d(G)[sp].d(A)[sp].d(G)[sp].d(C)[sp].d(C)[sp].d(A)[sp].d(C)[sp].d(C)[sp].[moe](A)[sp].[moe](G)[sp].[moe](C)}$$$$V2.0	52% and 45%	
RNA1{[moe](G)[sp].[moe](A)[sp].[moe](A)[sp].d(C)[sp].d(C)[sp].d(A)[sp].d(C)[sp].d(T)[sp].d(G)[sp].d(A)[sp].d(A)[sp].d(C)[sp].[moe](A)[sp].[moe](A)[sp].[moe](A)[sp].[moe](T)}$$$$V2.0	46% and 42%	
RNA1{[moe](T)[sp].[moe](G)[sp].[moe](A)[sp].[cEt](G)[sp].[cEt](G)[sp].d(C)[sp].d(A)[sp].d(T)[sp].d(A)[sp].d(G)[sp].d(C)[sp].d(A)[sp].[cEt](G)[sp].[cEt](C)[sp].[moe](A)[sp].[moe](G)[sp].[moe](G)}$$$$V2.0		target mRNA inhibition (HepG2, 0.009375 µM): 23%; target mRNA inhibition (HepG2, 0.01875 µM): 4%; target mRNA inhibition (HepG2, 0.0375 µM): 29%; target mRNA inhibition (HepG2, 0.075 µM): 31%; target mRNA inhibition (HepG2, 0.15 µM): 36%; target mRNA inhibition (HepG2, 0.3 µM): 56%
RNA1{[moe](G)[sp].[moe](A)[sp].d(A)[sp].d(G)[sp].d(T)[sp].d(C)[sp].d(C)[sp].d(A)[sp].d(C)[sp].d(C)[sp].d(A)[sp].[moe](C)[sp].[moe](G)[sp].[moe](A)[sp].[moe](G)[sp].[moe](T)[sp].[moe](C)}$$$$V2.0	66% and 49%	
RNA1{[moe](A)[sp].[moe](C)[sp].[moe](G)[sp].d(G)[sp].d(G)[sp].d(C)[sp].d(A)[sp].d(A)[sp].d(C)[sp].d(A)[sp].d(T)[sp].d(A)[sp].[moe](C)[sp].[moe](C)[sp].[moe](T)[sp].[moe](T)[sp].[moe](G)}$$$$V2.0	43% and 34%	
RNA1{[moe](A)[sp].[moe](T)[sp].[moe](G)[sp].d(A)[sp].d(G)[sp].d(G)[sp].d(C)[sp].d(A)[sp].d(T)[sp].d(A)[sp].d(G)[sp].d(C)[sp].[moe](A)[sp].[moe](G)[sp].[moe](C)[sp].[moe](A)[sp].[moe](G)}$$$$V2.0	66% and 51%	
RNA1{[moe](C)[sp].[moe](G)[sp].[moe](A)[sp].[moe](A)[sp].[moe](C)[sp].d(C)[sp].d(A)[sp].d(C)[sp].d(T)[sp].d(G)[sp].d(A)[sp].d(A)[sp].d(C)[sp].d(A)[sp].[moe](A)[sp].[moe](A)[sp].[moe](T)}$$$$V2.0	34% and 32%	
RNA1{[moe](A)[sp].[moe](A)[sp].[moe](G)[sp].[moe](C)[sp].[moe](G)[sp].d(A)[sp].d(A)[sp].d(G)[sp].d(T)[sp].d(G)[sp].d(C)[sp].d(A)[sp].d(C)[sp].d(A)[sp].[moe](C)[sp].[moe](G)[sp].[moe](G)}$$$$V2.0	77% and 76%	target mRNA inhibition (HepG2, 0.0092593 µM): 8%; target mRNA inhibition (HepG2, 0.0277778 µM): 26%; target mRNA inhibition (HepG2, 0.0833333 µM): 62%; target mRNA inhibition (HepG2, 0.25 µM): 85%
RNA1{[moe](G)[sp].[moe](A)[sp].[moe](A)[sp].[moe](G)[sp].[moe](T)[sp].[moe](C)[sp].d(C)[sp].d(A)[sp].d(C)[sp].d(C)[sp].d(A)[sp].d(C)[sp].d(G)[sp].d(A)[sp].d(G)[sp].[moe](T)[sp].[moe](C)}$$$$V2.0	42%	
RNA1{[moe](C)[sp].[moe](G)[sp].[moe](C)[sp].[moe](A)[sp].d(G)[sp].d(T)[sp].d(A)[sp].d(T)[sp].d(G)[sp].d(G)[sp].d(A)[sp].d(T)[sp].d(C)[sp].[moe](G)[sp].[moe](G)[sp].[moe](C)}$$$$V2.0	80% and 68%	
RNA1{[moe](C)[sp].[cEt](G)[sp].d(G)[sp].d(G)[sp].d(C)[sp].d(A)[sp].d(A)[sp].d(C)[sp].d(A)[sp].d(T)[sp].d(A)[sp].d(C)[sp].[cEt](C)[sp].[moe](T)[sp].[cEt](T)[sp].[moe](G)}$$$$V2.0	72% and 65%	
RNA1{[moe](A)[sp].[cEt](A)[sp].d(T)[sp].d(T)[sp].d(T)[sp].d(A)[sp].d(T)[sp].d(G)[sp].d(C)[sp].d(C)[sp].d(T)[sp].d(A)[sp].[cEt](C)[sp].[moe](A)[sp].[cEt](G)[sp].[moe](C)}$$$$V2.0	60% and 59%	
RNA1{[moe](G)[sp].[moe](A)[sp].[moe](G)[sp].d(T)[sp].d(T)[sp].d(C)[sp].d(C)[sp].d(G)[sp].d(C)[sp].d(A)[sp].d(G)[sp].d(T)[sp].d(A)[sp].[cEt](T)[sp].[cEt](G)[sp].[cEt](G)}$$$$V2.0	70% and 62%	
RNA1{[moe](G)[sp].[moe](A)[sp].[moe](G)[sp].d(A)[sp].d(G)[sp].d(A)[sp].d(A)[sp].d(G)[sp].d(T)[sp].d(C)[sp].d(C)[sp].d(A)[sp].d(C)[sp].[cEt](C)[sp].[cEt](A)[sp].[cEt](C)}$$$$V2.0	38% and 23%	
RNA1{[moe](T)[sp].[cEt](G)[sp].[cEt](A)[sp].d(G)[sp].d(G)[sp].d(C)[sp].d(A)[sp].d(T)[sp].d(A)[sp].d(G)[sp].d(C)[sp].d(A)[sp].d(G)[sp].[cEt](C)[sp].[cEt](A)[sp].[moe](G)}$$$$V2.0	68% and 61%	
RNA1{[moe](A)[sp].[moe](G)[sp].[moe](A)[sp].[moe](G)[sp].d(G)[sp].d(T)[sp].d(G)[sp].d(A)[sp].d(A)[sp].d(G)[sp].d(C)[sp].d(G)[sp].d(A)[sp].[moe](A)[sp].[moe](G)[sp].[moe](T)[sp].[moe](G)}$$$$V2.0	50% and 47%	
RNA1{[moe](T)[sp].[moe](G)[sp].[moe](A)[sp].d(G)[sp].d(G)[sp].d(C)[sp].d(A)[sp].d(T)[sp].d(A)[sp].d(G)[sp].d(C)[sp].d(A)[sp].[moe](G)[sp].[moe](C)[sp].[moe](A)[sp].[moe](G)[sp].[moe](G)}$$$$V2.0	70% and 56%	
RNA1{[moe](A)[sp].[moe](G)[sp].[moe](G)[sp].[moe](A)[sp].d(G)[sp].d(T)[sp].d(T)[sp].d(C)[sp].d(C)[sp].d(G)[sp].d(C)[sp].d(A)[sp].d(G)[sp].[moe](T)[sp].[moe](A)[sp].[moe](T)[sp].[moe](G)}$$$$V2.0	74% and 50%	

Source: the OligoGym collection
